Legend:
[1] = system: murine 4T1 mammary adenocarcinoma cells; test: Cell viability assay, HPMA conjugate study, 4T1 cells; assay type: cell-based; details: Mus musculus, 96 hours incubation, read-out: IC50, proliferation of 4T1 cells
Description: (§1) 4T1 cells (3,000 cells/well), HUVEC (10,000 cells/well) and MDA-MB-231 cells (10,000 cells/well) were plated onto 24-well culture plates in RPMI supplemented with 2% FBS, EBM-2 supplemented with 5% FBS or in DMEM supplemented with 10% FBS respectively, and incubated for 24 hours (37° C.; 5% CO2). The medium was then replaced with RPMI 1640 supplemented with 10% FBS, EGM-2 or DMEM supplemented with 10% FBS. Cells were exposed to PTX and PTX bound-conjugates at serial dilutions, at equivalent dose of the free PTX. Number of viable cells was counted by a Z1 Coulter Counter® Cell and Particle Counter (Beckman Coulter®) following 96 hours of incubation.

[2] = system: human WM239A melanoma cells; test: Cell viability assay, PGA-PTX-Cy5 study, WM239A cells; assay type: cell-based; details: 72 hours incubation, read-out: IC50, proliferation of WM239A cells
Description: (§2) 4T1 cells (8,000 cells/wells), WM239A cells (15,000 cells/well) and MDA-MB-231 cells (10,000/well) were plated onto 24-well culture in RPMI supplemented with 10% FBS, or in DMEM supplemented with 10% FBS respectively, and incubated for 24 hours (37° C.; 5% CO2). The medium was then replaced with RPMI 1640 supplemented with 10% FBS or DMEM supplemented with 10% FBS.
(§3) Cells were exposed to PTX and PTX-bound conjugates at serial dilutions, at equivalent dose of free PTX. Number of viable cells was counted by a Z1 Coulter Counter® Cell and Particle Counter (Beckman Coulter®) following 72 hours of incubation.

[3] = system: human MDA-MB-231 mammary adenocarcinoma cells; test: Cell viability assay, PGA-PTX-Cy5 study, MDA-MB-231 cells; assay type: cell-based; details: 72 hours incubation, read-out: IC50, proliferation of MDA-MB-231 cells
Description: as §2, §3

[4] = system: murine 4T1 adenocarcinoma cells; test: Cell viability assay, PGA-PTX-Cy5 study, 4T1 cells; assay type: cell-based; details: Mus musculus, 72 hours incubation, read-out: IC50, proliferation of 4T1 cells
Description: as §2, §3

HUVEC [5] = test: Cell viability assay, HPMA conjugate study, HUVEC proliferation; assay type: cell-based; details: Homo sapiens, 96 hours incubation
Description: as §1

[6] = system: human MDA-MB-231 mammary adenocarcinoma cells; test: Cell viability assay, HPMA conjugate study, MDA-MB-231 cells; assay type: cell-based; details: 72 hours incubation (FIG. 10C), read-out: IC50, proliferation of MDA-MB-231 cells
Description: as §1, with “Number of viable cells was counted by a Z1 Coulter Counter® Cell and Particle Counter (Beckman Coulter®) following 96 hours of incubation.” left out

HUVEC [7] = test: HUVEC migration scratch assay; assay type: cell-based, human; details: PTX-equivalent concentration 20 nM; 12 h
Description: The migration of HUVEC in the presence of PGA-PTX-Cy5 conjugate was evaluated using the scratch assay. The method is based on the observation that, upon creation of a new artificial gap, so called “scratch”, on a confluent cell monolayer, the cells on the edge of the newly created gap will move toward the opening to close the “scratch” until new cell-cell contacts are established again. […] At time zero (t=0) images were taken by phase-contrast microscope in a reference point. Following another 12 h of incubation, images of the reference point were taken again. The samples were analyzed quantitatively by ImageJ software.

Structure (SMILES): CC(=O)O[C@H]1C(=O)[C@@]2(C)[C@H]([C@H](OC(=O)c3ccccc3)[C@]3(O)C[C@H](OC(=O)[C@H](O)[C@@H](NC(=O)c4ccccc4)c4ccccc4)C(C)=C1C3(C)C)[C@]1(OC(C)=O)CO[C@@H]1C[C@@H]2O [PTX, Paclitaxel]
- IC50 [1]: ~35 nM
- IC50 [2]: ~5 nM
- IC50 [3]: ~2 nM
- IC50 [4]: ~60 nM
- IC50 (HUVEC [5]): ~2 nM
- IC50 [6]: ~0.5 nM
- HUVEC migration, gap closure (HUVEC [7]): 20%
